Results as given in publication PMC10294832, “Investigation of Naphthyl–Polyamine Conjugates as Antimicrobials and Antibiotic Enhancers” (Antibiotics, 2023).
≈ marks a conversion by molar mass, not a printed value. Where “and” joins values, the source holds several entries; their conditions need not be identical. Identical values can stand only once. Like-named read-outs stand apart in the source and are kept apart here.

Assays:
[1] = test system: S. aureus (ATCC 25,923 or ATCC 29213); assay: Antimicrobial MIC, S. aureus; format: cell-based, Staphylococcus aureus; conditions: Staphylococcus aureus, mean (n = 3)
Method: (§1) The susceptibility of bacterial strains S. aureus (ATCC 25,923 or 29213), E. coli (ATCC 25922), and P. aeruginosa (ATCC 27853) to antibiotics and compounds was determined according to previously reported protocols. Additional antimicrobial evaluation against MRSA (ATCC 43300), Klebsiella pneumoniae (ATCC 700603), Acinetobacter baumannii (ATCC 19606), Candida albicans (ATCC 90028), and Cryptococcus neoformans (ATCC 208821) was undertaken at the Community for Open Antimicrobial Drug Discovery at The University of Queensland (Australia) according to their standard protocols as reported previously.

[2] = test system: P. aeruginosa (ATCC 27853); assay: Enhancement of doxycycline activity; format: cell-based, Pseudomonas aeruginosa; conditions: for Dox/P.a: concentration required to restore doxycycline activity (combination MIC): doxycycline fixed at 4.5 µM (2 µg/mL); for Dox/P.a: concentration required to restore doxycycline activity (combination MIC) / Concentration of test compound required to restore doxycycline activity: P. aeruginosa (ATCC 27853); for Dox/P.a fold change: ratio between intrinsic MIC of test compound and combination MIC, doxycycline 4.5 µM, P. aeruginosa
E. coli (ATCC 25922) [3] = assay: Enhancement of erythromycin activity; format: cell-based, Escherichia coli; conditions: for Eryth/E.c: concentration required to restore erythromycin activity (combination MIC): erythromycin fixed at 10.9 µM (8 µg/mL), E. coli (ATCC 25922); for Eryth/E.c fold change: ratio between intrinsic MIC of test compound and combination MIC, erythromycin 10.9 µM, E. coli
Method: Restoring enhancer concentrations were determined using previously reported protocols.

[4] = test system: K. pneumoniae (ATCC 700603); assay: Antimicrobial MIC, K. pneumoniae; format: cell-based; conditions: Klebsiella pneumoniae, ATCC700603, mean (n = 2)
Method: as §1

Cytotoxicity assay = format: cell-based, human; conditions: human, HEK293 human embryonic kidney cells, concentration at 50% cytotoxicity on HEK293 cells; mean (n = 2)
Method: Cytotoxicity assays were conducted using the protocols previously reported.

MRSA (ATCC 43300) = assay: Antimicrobial MIC, MRSA; format: cell-based, methicillin-resistant Staphylococcus aureus; conditions: read-out: MIC MRSA
Method: as §1

[5] = test system: C. neoformans (ATCC 208821); assay: Antifungal MIC, C. neoformans; format: cell-based, Cryptococcus neoformans; conditions: mean (n = 2)
Method: as §1

[6] = test system: P. aeruginosa (PAO1 or ATCC 27853); assay: Antimicrobial MIC, P. aeruginosa; format: cell-based; conditions: Pseudomonas aeruginosa
Method: as §1

human red blood cells = assay: Hemolytic assay; format: cell-based; conditions: concentration at 10% hemolytic activity on human red blood cells; mean (n = 2)
Method: Hemolysis assays were conducted using the protocols previously reported.

[7] = test system: A. baumannii (ATCC 19606); assay: Antimicrobial MIC, A. baumannii; format: cell-based, Acinetobacter baumannii; conditions: mean (n = 2)
Method: as §1

E. coli (ATCC 25922) [8] = assay: Antimicrobial MIC, E. coli; format: cell-based, Escherichia coli; conditions: Escherichia coli, ATCC25922, E. coli (ATCC 25922); mean (n = 2)
Method: as §1

C. albicans (ATCC 90028) = assay: Antifungal MIC, C. albicans; format: cell-based; conditions: Candida albicans, ATCC90028, mean (n = 2)
Method: as §1

[9] = Staphylococcus aureus, MRSA (ATCC 43300), mean (n = 2)
[10] = Cryptococcus neoformans, ATCC208821, C. neoformans (ATCC 208821)
[11] = P. aeruginosa (PAO1 or ATCC 27853), mean (n = 3), read-out: MIC P. a
[12] = Acinetobacter baumannii, ATCC19606, A. baumannii (ATCC 19606)
[13] = MRSA (ATCC 43300), mean (n = 2)

| SMILES | MIC [1] [µM] | Dox/P.a: concentration required to restore doxycycline activity (combination MIC) [2] [µM] | Eryth/E.c: concentration required to restore erythromycin activity (combination MIC) (E. coli (ATCC 25922) [3]) [µM] | MIC [4] [µM] | MIC (MRSA (ATCC 43300); [9]) [µM] | MIC [5, 10] [µM] | MIC [6, 11] [µM] | MIC [7, 12] [µM] | MIC (E. coli (ATCC 25922) [8]) [µM] | MIC (C. albicans (ATCC 90028)) [µM] | Dox/P.a fold change [2] [fold] | Eryth/E.c fold change (E. coli (ATCC 25922) [3]) [fold] | IC50 (Cytotoxicity assay) [µM] | Hemolysis HC10 (human red blood cells) [µM] | also measured |
| --- | --- | --- | --- | --- | --- | --- | --- | --- | --- | --- | --- | --- | --- | --- | --- |
| O=C(N[C@H](CO)[C@H](O)c1ccc([N+](=O)[O-])cc1)C(Cl)Cl [chloramphenicol, reference compound] | 1.5 to 3 (≈ 0.485 to 0.969 µg/mL) | – | – | – | – | – | – | – | – | – | – | – | – | – | – |
| C[C@H]1c2cccc(O)c2C(=O)C2=C(O)[C@]3(O)C(=O)C(C(N)=O)=C(O)[C@@H](N(C)C)[C@@H]3[C@@H](O)[C@@H]21 [doxycycline, reference compound] | – | – | – | – | – | – | – | – | – | – | – | – | – | – | MIC ([6]; antibiotic alone, P. aeruginosa, read-out: intrinsic MIC against P. aeruginosa): 40 µg/mL and 90 µM |
| CN[C@H](CC(C)C)C(=O)N[C@H]1C(=O)N[C@@H](CC(N)=O)C(=O)N[C@H]2C(=O)N[C@H]3C(=O)N[C@H](C(=O)N[C@H](C(=O)O)c4cc(O)cc(O)c4-c4cc3ccc4O)[C@H](O)c3ccc(c(Cl)c3)Oc3cc2cc(c3O[C@@H]2O[C@H](CO)[C@@H](O)[C@H](O)[C@H]2O[C@H]2C[C@](C)(N)[C@H](O)[C@H](C)O2)Oc2ccc(cc2Cl)[C@H]1O [vancomycin, reference compound] | – | – | – | – | – | – | – | – | – | – | – | – | – | – | MIC (MRSA (ATCC 43300); Staphylococcus aureus): 0.7 µM (≈ 1.01 µg/mL) |
| CC/C(=C(\c1ccccc1)c1ccc(OCCN(C)C)cc1)c1ccccc1 [tamoxifen, reference compound] | – | – | – | – | – | – | – | – | – | – | – | – | 24 | – | – |
| OC(Cn1cncn1)(Cn1cncn1)c1ccc(F)cc1F [fluconazole, reference compound] | – | – | – | – | – | 26 (≈ 7.96 µg/mL) | – | – | – | 0.4 (≈ 0.123 µg/mL) | – | – | – | – | – |
| [H]/N=C(/N)N[C@H]1[C@H](O)[C@@H](O)[C@H](O[C@@H]2O[C@@H](C)[C@](O)(C=O)[C@H]2O[C@@H]2O[C@@H](CO)[C@H](O)[C@@H](O)[C@@H]2NC)[C@@H](N/C(N)=N\[H])[C@@H]1O [streptomycin, reference compound] | 21.5 (≈ 12.5 µg/mL) | – | – | – | – | – | 21.5 (≈ 12.5 µg/mL) | – | – | – | – | – | – | – | – |

The next lines start with results.

| MIC [1] [µM] | Dox/P.a: concentration required to restore doxycycline activity (combination MIC) [2] [µM] | Eryth/E.c: concentration required to restore erythromycin activity (combination MIC) (E. coli (ATCC 25922) [3]) [µM] | MIC [4] [µM] | MIC (MRSA (ATCC 43300); [9]) [µM] | MIC [5, 10] [µM] | MIC [6, 11] [µM] | MIC [7, 12] [µM] | MIC (E. coli (ATCC 25922) [8]) [µM] | MIC (C. albicans (ATCC 90028)) [µM] | SMILES | Dox/P.a fold change [2] [fold] | Eryth/E.c fold change (E. coli (ATCC 25922) [3]) [fold] | IC50 (Cytotoxicity assay) [µM] | Hemolysis HC10 (human red blood cells) [µM] | also measured |
| --- | --- | --- | --- | --- | --- | --- | --- | --- | --- | --- | --- | --- | --- | --- | --- |
| 104 | 207 | 51.8 | > 33.2 | 33.2 | 33.2 | 518 | > 33.2 | 518 | > 33.2 | O=C(CCC(=O)Nc1cccc2ccccc12)NCCCNCCCCCCCCCCNCCCNC(=O)CCC(=O)Nc1cccc2ccccc12.O=C(O)C(F)(F)F.O=C(O)C(F)(F)F [Compound 18e, N^1,N^10-Bis(3-(4-(naphthalen-1-ylamino)-4-oxobutanamido)propyl)decane-1,10-diaminium 2,2,2-trifluoroacetate] | 2.5 | 10 | > 33.2 | >33.2 | – |
| 256 | 64 | 64 | > 41 | > 41 | > 41 | > 256 | > 41 | 256 | > 41 | O=C(NCCCNCCCCCCCNCCCNC(=O)c1cccc2ccccc12)c1cccc2ccccc12.O=C(O)C(F)(F)F.O=C(O)C(F)(F)F [Compound 17c, N^1,N^7-Bis(3-(1-naphthamido)propyl)heptane-1,7-diaminium 2,2,2-trifluoroacetate] | – | 4 | > 41 | >41.0 | – |
| 100 | 300 | 300 | > 37.6 | 0.29 | 0.29 | 300 | 0.29 | 300 | > 37.6 | O=C(NCCCNCCCCCCCCCCCCNCCCNC(=O)c1ccc2ccccc2c1)c1ccc2ccccc2c1.O=C(O)C(F)(F)F.O=C(O)C(F)(F)F [Compound 19f, N^1,N^12-Bis(3-(2-naphthamido)propyl)dodecane-1,12-diaminium 2,2,2-trifluoroacetate] | 1 | 1 | > 37.6 | >37.6 | MIC (MRSA (ATCC 43300); [13]): 0.294 µM; MIC ([5]; C. neoformans (ATCC 208821)): 0.294 µM; MIC ([7]; A. baumannii (ATCC 19606)): 0.294 µM |
| 244 | 608 | 122 | > 38.9 | 9.7 | 38.9 | 608 | > 38.9 | 608 | > 38.9 | O=C(NCCCNCCCCCCCCCCNCCCNC(=O)c1cccc2ccccc12)c1cccc2ccccc12.O=C(O)C(F)(F)F.O=C(O)C(F)(F)F [Compound 17e, N^1,N^10-Bis(3-(1-naphthamido)propyl)decane-1,10-diaminium 2,2,2-trifluoroacetate] | 1 | 5 | 23.7 | >38.9 | MIC (MRSA (ATCC 43300); [13]): 9.72 µM |
| 30 | 608 | 60.8 | 38.9 | 1.22 | 4.86 | 608 | 38.9 | 122 | 38.9 | O=C(NCCCNCCCCCCCCCCNCCCNC(=O)c1ccc2ccccc2c1)c1ccc2ccccc2c1.O=C(O)C(F)(F)F.O=C(O)C(F)(F)F [Compound 19e, N^1,N^10-Bis(3-(2-naphthamido)propyl)decane-1,10-diaminium 2,2,2-trifluoroacetate] | 1 | 2 | 4.75 | >38.9 | – |
| 57 | 28 | – | > 36.3 | 18.2 | > 36.3 | 568 | > 36.3 | 227 | > 36.3 | O=C(CCC(=O)Nc1ccc2ccccc2c1)NCCCNCCCCNCCCNC(=O)CCC(=O)Nc1ccc2ccccc2c1.O=C(O)C(F)(F)F.O=C(O)C(F)(F)F [Compound 20a, N^1,N^4-Bis(3-(4-(naphthalen-2-ylamino)-4-oxobutanamido)propyl)butane-1,4-diaminium 2,2,2-trifluoroacetate] | 20 | – | > 36.3 | >36.3 | Concentration of test compound required to restore doxycycline activity ([2]; doxycycline concentration 2 µg/mL): 28.4 µM; Concentration of test compound required to restore doxycycline activity ([2]; doxycycline concentration 4 µg/mL): 14.2 µM; Concentration of test compound required to restore doxycycline activity ([2]; doxycycline concentration 6 µg/mL): 14.2 µM; Concentration of test compound required to restore doxycycline activity ([2]; doxycycline concentration 8 µg/mL): 3.5 µM |
| 50 | – | 31.5 | > 40.3 | > 40.3 | > 40.3 | > 100 | > 40.3 | 100 | > 40.3 | O=C(NCCCNCCCCCCCCNCCCNC(=O)c1cccc2ccccc12)c1cccc2ccccc12.O=C(O)C(F)(F)F.O=C(O)C(F)(F)F [Compound 17d, N^1,N^8-Bis(3-(1-naphthamido)propyl)octane-1,8-diaminium 2,2,2-trifluoroacetate] | – | 3 | > 40.3 | >40.3 | – |
| 568 | 568 | 568 | > 36.3 | > 36.3 | > 36.3 | 568 | > 36.3 | 568 | > 36.3 | O=C(CCC(=O)Nc1cccc2ccccc12)NCCCNCCCCNCCCNC(=O)CCC(=O)Nc1cccc2ccccc12.O=C(O)C(F)(F)F.O=C(O)C(F)(F)F [Compound 18a, N^1,N^4-Bis(3-(4-(naphthalen-1-ylamino)-4-oxobutanamido)propyl)butane-1,4-diaminium 2,2,2-trifluoroacetate] | 1 | 1 | – | – | – |
